# Source: ChEMBL document CHEMBL1124056, “Derivatives of the muscarinic agent N-methyl-N-(1-methyl-4-pyrrolidino-2-butynyl)acetamide” (J Med Chem, 1988)
# Experiments:
# Cavia porcellus [1] = species on record: Cavia porcellus; assay: Concentration that elicits 50% of its own maximum contractile response, in guinea pig ileum; assay type: functional
# [2] = molecular target: Muscarinic acetylcholine receptor; assay: Equilibrium dissociation constant muscarinic receptor complex, measured in guinea pig ileum; assay type: functional, tissue-based, Cavia porcellus
# Cavia porcellus [3] = species on record: Cavia porcellus; assay: Efficacy relative to that of carbachol, measured in guinea pig ileum; assay type: functional
# Cavia porcellus [4] = species on record: Cavia porcellus; assay: Maximum contractile response relative to that elicited by carbachol, in guinea pig ileum; assay type: functional
# Mus musculus [5] = species on record: Mus musculus; assay: Dose required to double the dose of oxotremorine inducing a predetermined (grade 2) tremor intensity in mice; g=Agonist; assay type: functional, organism-based; settings: filed as agonist
# Mus musculus [6] = species on record: Mus musculus; assay: Dose required to double the dose of oxotremorine inducing a predetermined (grade 2) tremor intensity in mice; assay type: functional
# Cavia porcellus [7] = species on record: Cavia porcellus; assay: Equipotent molar ratio relative to that of carbachol, which equals 1, in guinea pig ileum; assay type: functional
Kd [2] [µM],SMILES,EC50 (Cavia porcellus [1]) [nM],Relative efficacy (Cavia porcellus [3]),Emax (Cavia porcellus [4]),Tremorolytic dose (Mus musculus [5]),Tremorolytic dose (Mus musculus [6]) [µM/kg],EPMR (Cavia porcellus [7])
13,CC(C#CCN1CCCC1)N(C)S(C)(=O)=O (configuration not stated),,,,,82,
1.6,CCN(CC)CC#CC(C)N(C(C)=O)C(C)=O (configuration not stated),,,0,,39,
21.6,CC(=O)N(C(C)=O)C(C)C#CCN(C)C (configuration not stated),5500,0.03,0.99,,109,57.9
0.28,CC(=O)N(C(C)=O)C(C)C#CCN1CCCC1 (configuration not stated),,,0,,3.2,
0.24,CC(=O)N(C)C(C)C#CCN1CCCC1 (configuration not stated),190,0.013,0.83,,0.6,
5.4,CC(C#CCN1CCCC1)N(S(C)(=O)=O)S(C)(=O)=O (configuration not stated),,,,,157,
0.57,CC(C#CCN1CCCC1)N(C)C(=O)C(F)(F)F (configuration not stated),,,0,,21.4,
0.15,CC(C#CCN1CCCC1)N1C(=O)CCC1=O (configuration not stated),,,,,1.2,
3.1,CC(=O)N(C(C)C#CCN1CCCC1)S(C)(=O)=O (configuration not stated),,,,,99.7,
95.4,CC(C#CCN(C)C)N(C)C(=O)C(F)(F)F (configuration not stated),,,<0.1,,>200,
8.6,CC(=O)N(C(C)=O)C(C)C#CC[N+](C)(C)C (configuration not stated),1200,0.055,1.01,,,10.7
91.9,CC(C#CC[N+](C)(C)C)N(C)C(=O)C(F)(F)F (configuration not stated),27100,0.026,0.89,,,214
,C[N+](C)(C)CCOC(N)=O.[Cl-] [CARBACHOL],110,,1,,,1

SMILES,Kd [2] [µM],EC50 (Cavia porcellus [1]) [nM],Relative efficacy (Cavia porcellus [3]),Emax (Cavia porcellus [4]),Tremorolytic dose (Mus musculus [5]),Tremorolytic dose (Mus musculus [6]) [µM/kg],EPMR (Cavia porcellus [7])
CC(=O)N(C)CC#CCN1CCCC1,2.2,69,0.15,1.01,,,
CN(C)CC#CCN1C(=O)CCC1=O,208,2500,0.35,1.01,Agonist,,
CN(CC#CCN1CCCC1)C(=O)C(F)(F)F,15.6,16900,0.003,0.16,,150,145
CCN(CC)CC#CCN(C(C)=O)C(C)=O,7.2,,,0,,107,
CC(=O)N(CC#CCN(C)C)C(C)=O,65.6,38800,0.013,0.84,,>200,320
CS(=O)(=O)N(CC#CCN1CCCC1)S(C)(=O)=O,15.9,,,,,>200,
CN(CC#CCN1CCCC1)S(C)(=O)=O,68,,,,,174,
O=C1CCC(=O)N1CC#CCN1CCCC1,5,1000,0.027,0.98,,23,
CC(=O)N(CC#CC[N+](C)(C)C)C(C)=O,8.2,2000,0.034,1,,,19.3
CC(=O)N(CC#CCN1CCCC1)S(C)(=O)=O,17.9,,,,,>200,
CC(=O)N(CC#CCN1CCCC1)C(C)=O,0.44,,,0,,2.9,
